Data reported in US20240209028A1, “CNP COMPOUNDS” (priority 2022, published 2024).
Starred links: 1 amine or outer side, 2 acyl side, 3 side chain; linkers in the order of their positions; H or OH if unused. Positions of bridges follow the written chain, without caps; N, C: chain ends. Residues, ends and D or L forms follow the SMILES beside them. *: point of attachment. C18 diacid = O=C(O)CCCCCCCCCCCCCCCCC(=O)*; γGlu = O=C(O)[C@H](CCC(=O)[*:2])N[*:1]

Experiment: Telemetry measurement of heart rate and blood pressure in awake rats
Type: in vivo, Sprague Dawley rat
Conditions: for Heart rate: 30 min, P (vs vehicle) / Heart rate: 12 h, P (vs vehicle) / Mean arterial pressure: 30 min, P (vs vehicle) / Mean arterial pressure: 12 h, P (vs vehicle): paired t test; for Heart rate: 12 h, Mean (bpm) / Mean arterial pressure: 12 h, Mean (mmHg) / Heart rate: 30 min, Mean (bpm) / Mean arterial pressure: 30 min, Mean (mmHg): awake rats; for Heart rate: 12 h, Mean (bpm) / Mean arterial pressure: 12 h, Mean (mmHg): average of first 12 h; for Heart rate: 30 min, Mean (bpm) / Mean arterial pressure: 30 min, Mean (mmHg): first 30 min; for increase in HR: P<0.05
Protocol: The purpose of the study was to investigate the effect of acute dosing with the CNP compound 9482 (Chem. 137) on mean blood pressure (MAP) and heart rate (HR) in awake rats.
Procedure: The transducers are implanted in Sprague Dawley rats (Charles River) and the rats are allowed a 2-3-week period for recovery. Before surgery, the devices are registered in the software by placing them on a receiver plate and powered on. Sterile saline is added to the transducer catheter before surgery start, and the transmitter is then powered on. The transmitters are placed in the abdomen with the sensor in aorta abdominalis. Isoflurane is used as anaesthetic, and during and after surgery, the rats receive Temgesic (0.05 mg/kg s.c.), Norodyl (5 mg/kg s.c.), and Baytril (10 mg/kg s.c.) as pain relief and to prevent bacterial infection.
Study design: Rats are housed 2/cage (1 with device and 1 as social partner). All animals will have free access to water and food (altromin) throughout the entire study. The rats will be housed in light cycles with light from 6 AM to 6 PM and dark from 6 PM to 6 AM. Eight rats are divided into 2 groups according to a crossover study design.
Telemetry: Each rat is equipped with a transducer (HD-S10 from DSI) capable of measuring blood pressure, heart rate, and activity using Ponemah software with a 100 Hz frequency. During measurements, there should be no disturbances in the room that the rats are housed in to minimize variability in the data. A 4-hour baseline recording will be taken prior to start of the study to capture mean arterial pressure (MAP) and heart rate (HR) patterns in untreated, undisturbed rats. The recording period after drug administration was 24 hours.
Dosing scheme: Rats are dosed in a crossover study design with 4 rats in each group. Each rat is given a washout period of 1 week prior to the next dosing event. Dosing will be intravenous (IV) in the tail vein. Dosing of 9482 was tested in 30, 100, and 300 nmol/kg i.v. in separate experiments. The vehicle consists of 8 mM phosphate, 250 mM glycerol, pH 7.4.
Data analysis and statistics was conducted in Ponemah software and Graphpad prism. For statistics, a paired t test was applied with a confidence level of 95% and P<0.05 denoting statistical significance.

[1] = first 30 min after dosing, 30, 100, or 300 nmol/kg i.v.

With `CC[C@H](C)[C@@H]1NC(=O)[C@H](CCCNC(=N)N)NC(=O)[C@H](CC(=O)O)NC(=O)[C@H](CC(C)C)NC(=O)[C@@H]2CCCN2C(=O)[C@H](CC(C)C)NC(=O)CNC(=O)[C@H](Cc2ccccc2)NC(=O)[C@@H](NC(=O)CNC(=O)[C@H](CO)NC(=O)[C@H](CO)NC(=O)[C@H](CC(C)C)NC(=O)CNC(=O)[C@H](CCCCN)NC(=O)[C@H](CCCCN)NC(=O)[C@H](CCC(N)=O)NC(=O)[C@H](C)NC(=O)CNC(=O)[C@H](CCCCN)NC(=O)[C@H](Cc2ccc(O)cc2)NC(=O)[C@H](CCCCN)NC(=O)[C@H](CCCNC(=N)N)NC(=O)[C@H](C)NC(=O)[C@H](CCC(N)=O)NC(=O)[C@@H]2CCCN2C(=O)[C@H](Cc2c[nH]cn2)NC(=O)[C@H](CCC(=O)O)NC(=O)[C@H](CCC(N)=O)NC(=O)CC[C@H](NC(=O)CC[C@H](NC(=O)CC[C@H](NC(=O)CC[C@H](NC(=O)CC[C@H](NC(=O)CCCCCCCCCCCCCCCCC(=O)O)C(=O)O)C(=O)O)C(=O)O)C(=O)O)C(=O)O)CSSC[C@@H](C(=O)O)NC(=O)CNC(=O)[C@H](CC(C)C)NC(=O)CNC(=O)[C@H](CO)NC(=O)[C@H](CC(C)C)NC(=O)[C@H](CO)NC(=O)CNC1=O` [compound 9482] ({C18 diacid-γGlu-γGlu-γGlu-γGlu-γGlu}-QEHPQARKYKGAQKKGLSSGCFGLPLDRIGSLSGLGC-OH; disulfide 21-37) as the molecule, how does the “Heart rate: 30 min, P (vs vehicle)” value (30 nmol/kg i.v.) read?
The value was “ns”.

What about the “Heart rate: 12 h, P (vs vehicle)” value (30 nmol/kg i.v.) of the same molecule?
Its value is “ns”.

What about the “Mean arterial pressure: 30 min, P (vs vehicle)” value (30 nmol/kg i.v.) of the same molecule?
The value was “ns”.

What about the “Mean arterial pressure: 12 h, P (vs vehicle)” value (30 nmol/kg i.v.) of the same molecule?
The value was “ns”.

What about the “Heart rate: 30 min, P (vs vehicle)” value (100 nmol/kg i.v.) of the same molecule?
The value was “ns”.

What about the “Heart rate: 12 h, P (vs vehicle)” value (100 nmol/kg i.v.) of the same molecule?
The value was 0.04.

And the “Mean arterial pressure: 30 min, P (vs vehicle)” value (100 nmol/kg i.v.)?
The value was “ns”.

What about the “Mean arterial pressure: 12 h, P (vs vehicle)” value (100 nmol/kg i.v.) of the same molecule?
The value was “ns”.

And the “Heart rate: 30 min, P (vs vehicle)” value (300 nmol/kg i.v.)?
Its value is “ns”.

And the “Heart rate: 12 h, P (vs vehicle)” value (300 nmol/kg i.v.)?
Its value is 0.03.

And the “Mean arterial pressure: 30 min, P (vs vehicle)” value (300 nmol/kg i.v.)?
Its value is “ns”.

And the “Mean arterial pressure: 12 h, P (vs vehicle)” value (300 nmol/kg i.v.)?
The value was “ns”.

And the “MAP compared to vehicle” value (average of the first 12 h, three tested doses i.v.)?
The value was “no differences”.

And the “Heart rate: 12 h, Mean (bpm)” value (30 nmol/kg i.v.)?
The value was 332 bpm.

What about the “Mean arterial pressure: 12 h, Mean (mmHg)” value (30 nmol/kg i.v.) of the same molecule?
The value was 106 mmHg.

What about the “Heart rate: 30 min, Mean (bpm)” value (30 nmol/kg i.v.) of the same molecule?
The value was 356 bpm.

What about the “Mean arterial pressure: 30 min, Mean (mmHg)” value (30 nmol/kg i.v.) of the same molecule?
Its value is 116 mmHg.

And the “Heart rate: 12 h, Mean (bpm)” value (100 nmol/kg i.v.)?
The value was 364 bpm.

What about the “Mean arterial pressure: 12 h, Mean (mmHg)” value (100 nmol/kg i.v.) of the same molecule?
The value was 104 mmHg.

And the “Heart rate: 30 min, Mean (bpm)” value (100 nmol/kg i.v.)?
The value was 388 bpm.

And the “Mean arterial pressure: 30 min, Mean (mmHg)” value (100 nmol/kg i.v.)?
Its value is 114 mmHg.

What about the “Heart rate: 12 h, Mean (bpm)” value (300 nmol/kg i.v.) of the same molecule?
The value was 355 bpm.

And the “Mean arterial pressure: 12 h, Mean (mmHg)” value (300 nmol/kg i.v.)?
The value was 102 mmHg.

And the “Heart rate: 30 min, Mean (bpm)” value (300 nmol/kg i.v.)?
The value was 370 bpm.

And the “Mean arterial pressure: 30 min, Mean (mmHg)” value (300 nmol/kg i.v.)?
The value was 111 mmHg.

What about the “HR compared to vehicle” value [1] of the same molecule?
Its value is “no difference”.

And the “MAP compared to vehicle” value [1]?
The value was “no difference”.

What about the “change in HR” value (first 12 h, 30 nmol/kg i.v.) of the same molecule?
The value was “No change”.

What about the “increase in HR” value (first 12 h, 100 nmol/kg i.v.) of the same molecule?
Its value is 8.8±10.1%.

And the “increase in HR” value (first 12 h, 300 nmol/kg i.v.)?
The value was 6.4±6.6%.
